Measured values as given in patent EP4741383A1, “COMPOUND AND USE THEREOF AS ANTI-CANCER DRUG” (Tyligand Bioscience (Shanghai) Limited, priority 2023, dated 2025).

How the values were obtained:
4T1 = experiment: CellTiter-Glo cell proliferation inhibition, 4T1; format: cell-based; conditions: 4T1 (mouse breast cancer cell line), 72 hours; read-out: Example IC50 (µM) 4T1
Source text: (§1) This experiment used the CellTiter-Glo® Luminescent Cell Viability Assay kit from Promega to evaluate the inhibitory activity of the disclosed compounds on the proliferation of the following cell lines: 4T1 (mouse breast cancer cell line), A20 (mouse B-cell lymphoma cell line), A2780 (human ovarian cancer cell line), AsPC-1 (pancreatic cancer cell line), B16F10 (mouse melanoma cell line), BT549 (human breast cancer cell line), CT26 (mouse colon cancer cell line), EMT6 (mouse breast cancer cell line), HCT116 (colorectal cancer cell line), Jurket (acute leukemia cell line), KP-4 (pancreatic cancer cell line), LL/2 (mouse lung cancer cell line), MCF7 (breast cancer cell line), […] NCI-H358 (lung cancer cell line), NCI-H727 (gastric cancer cell line), NCI-1944 (lung cancer cell line), Pan 04.03 (pancreatic cancer cell line), SK-BR-3 (breast cancer cell line), THP-1 (leukemia cell line), TOV21G (ovarian cancer cell line), U87MG (glioblastoma cell line), and UM-UC-a (bladder cancer cell line). […]
(§2) Cells were cultured according to the instructions provided by the cell supplier (Nanjing Kebai Biotechnology Co., Ltd.). […] Suspension or adherent cells were collected, and cell viability was determined using the trypan blue exclusion method, ensuring that cell viability was above 90%. […]

BT549 = experiment: CellTiter-Glo cell proliferation inhibition, BT549; format: cell-based; conditions: BT-549; BT549 (human breast cancer cell line), 72 hours; read-out: Example IC50 (µM) BT549
Source text: as §1, §2

CT26 = experiment: CellTiter-Glo cell proliferation inhibition, CT26; format: cell-based; conditions: CT26 (mouse colon cancer cell line), 72 hours; read-out: Example IC50 (µM) CT26
Source text: as §1, §2

EMT6 = experiment: CellTiter-Glo cell proliferation inhibition, EMT6; format: cell-based; conditions: EMT6 (mouse breast cancer cell line), 72 hours; read-out: Example IC50 (µM) EMT6
Source text: as §1, §2

KP-4 = experiment: CellTiter-Glo cell proliferation inhibition, KP-4; format: cell-based; conditions: Homo sapiens; KP-4 (pancreatic cancer cell line), 72 hours; read-out: Example IC50 (µM) KP-4
Source text: as §1, §2

LL/2 = experiment: CellTiter-Glo cell proliferation inhibition, LL/2; format: cell-based; conditions: LL/2 (mouse lung cancer cell line), 72 hours; read-out: Example IC50 (µM) LL/2
Source text: as §1, §2

MCF7 = experiment: CellTiter-Glo cell proliferation inhibition, MCF7; format: cell-based; conditions: Homo sapiens; MCF7 (breast cancer cell line), 72 hours; read-out: Example IC50 (µM) MCF7
Source text: as §1, §2

NCI-H358 = experiment: CellTiter-Glo cell proliferation inhibition, NCI-H358; format: cell-based; conditions: Homo sapiens; NCI-H358 (lung cancer cell line), 2D, 72 hours; read-out: Example IC50 (µM) NCI-H358(2D)
Source text: This experiment used the CellTiter-Glo® Luminescent Cell Viability Assay kit from Promega to evaluate the inhibitory activity of the disclosed compounds on the proliferation of the following cell lines: 4T1 (mouse breast cancer cell line), A20 (mouse B-cell lymphoma cell line), A2780 (human ovarian cancer cell line), AsPC-1 (pancreatic cancer cell line), B16F10 (mouse melanoma cell line), BT549 (human breast cancer cell line), CT26 (mouse colon cancer cell line), EMT6 (mouse breast cancer cell line), HCT116 (colorectal cancer cell line), Jurket (acute leukemia cell line), KP-4 (pancreatic cancer cell line), LL/2 (mouse lung cancer cell line), MCF7 (breast cancer cell line), […] NCI-H358 (lung cancer cell line), NCI-H727 (gastric cancer cell line), NCI-1944 (lung cancer cell line), Pan 04.03 (pancreatic cancer cell line), SK-BR-3 (breast cancer cell line), THP-1 (leukemia cell line), TOV21G (ovarian cancer cell line), U87MG (glioblastoma cell line), and UM-UC-a (bladder cancer cell line).
All cell lines were purchased from Nanjing Kebai Biotechnology Co., Ltd. The following materials were also used in the experiment: RPMI-1640 media (HyClone, catalog number #SH30022.01), McCoy's 5A media (Thermo Fisher, catalog number #16600-082), MCDB 105 media (Sigma, catalog number #117-500), Medium 199 (Thermo Fisher, catalog number #11150-059), MEM media (Thermo Fisher, catalog number #11095-080), DMEM media (HyClone, catalog number #SH30027.01), fetal bovine serum (FBS) (ExCell, catalog number # M4530), Sodium Pyruvate (100Mm) (Thermo Fisher, catalog number #11360-070), and MEM NEAA (100X) (Thermo Fisher). […]
as §2

NCI-1944 = experiment: CellTiter-Glo cell proliferation inhibition, NCI-1944; format: cell-based; conditions: NCI-1944 (lung cancer cell line), 72 hours; read-out: Example IC50 (µM) NCI-1944
Source text: as §1, §2

Pan 04.03 = experiment: CellTiter-Glo cell proliferation inhibition, Pan 04.03; format: cell-based; conditions: Pan 04.03 (pancreatic cancer cell line), 72 hours; read-out: Example IC50 (µM) Pan 04.03
Source text: as §1, §2

TOV21G = experiment: CellTiter-Glo cell proliferation inhibition, TOV21G; format: cell-based; conditions: Homo sapiens; TOV21G (ovarian cancer cell line), 72 hours; read-out: Example IC50 (µM) TOV21G
Source text: as §1, §2

U87MG = experiment: CellTiter-Glo cell proliferation inhibition, U87MG; format: cell-based; conditions: Homo sapiens, U-87 MG; U87MG (glioblastoma cell line), 72 hours; read-out: Example IC50 (µM) U87MG
Source text: as §1, §2

UM-UC-a = experiment: CellTiter-Glo cell proliferation inhibition, UM-UC-a; format: cell-based; conditions: UM-UC-a (bladder cancer cell line), 72 hours; read-out: Example IC50 (µM) UM-UC-a
Source text: as §1, §2

SHP2 = SHP2 (Homo sapiens, UniProt Q06124); conditions: J. Med. Chem. 2014, 57, 6594-6609; read-out: enzyme activity IC50; cited from earlier work
Chain of SHP2 (Q06124 whole entry): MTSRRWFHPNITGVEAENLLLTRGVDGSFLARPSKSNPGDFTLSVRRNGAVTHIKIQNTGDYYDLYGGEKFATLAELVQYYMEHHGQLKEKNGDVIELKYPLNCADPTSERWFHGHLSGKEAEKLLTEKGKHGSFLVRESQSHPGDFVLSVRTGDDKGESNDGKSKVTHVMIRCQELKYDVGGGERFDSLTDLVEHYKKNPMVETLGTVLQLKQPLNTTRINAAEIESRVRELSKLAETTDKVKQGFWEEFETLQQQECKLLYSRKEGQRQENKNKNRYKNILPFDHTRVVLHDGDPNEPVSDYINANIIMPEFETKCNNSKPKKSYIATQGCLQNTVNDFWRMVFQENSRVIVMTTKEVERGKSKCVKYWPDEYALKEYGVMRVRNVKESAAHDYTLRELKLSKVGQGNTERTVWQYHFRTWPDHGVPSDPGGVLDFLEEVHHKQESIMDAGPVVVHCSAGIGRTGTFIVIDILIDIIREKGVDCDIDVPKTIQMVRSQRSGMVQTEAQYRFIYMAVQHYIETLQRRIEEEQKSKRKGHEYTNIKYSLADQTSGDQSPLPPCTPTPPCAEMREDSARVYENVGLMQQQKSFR

[1] = J. Med. Chem. 2014, 57, 6594-6609; read-out: cellular activity IC50; cited from earlier work

| Structure (SMILES) | IC50 (4T1) | IC50 (BT549) | IC50 (CT26) | IC50 (EMT6) | IC50 (KP-4) | IC50 (LL/2) | IC50 (MCF7) | IC50 (NCI-H358) | IC50 (NCI-1944) | IC50 (Pan 04.03) | IC50 (TOV21G) | IC50 (U87MG) | IC50 (UM-UC-a) | IC50 (SHP2) | IC50 [1] |
| --- | --- | --- | --- | --- | --- | --- | --- | --- | --- | --- | --- | --- | --- | --- | --- |
| O=C(Nc1ccc(-c2csc(CO)c2)cc1)C(=O)Nc1ccc(-c2cc3cc(F)c(-c4nnn[nH]4)cc3n2C2CCC2)cc1 [Example 1] | 0.125 µM | 0.121 µM | 0.123 µM | 0.131 µM | 0.228 µM | 0.207 µM | 0.083 µM | 0.074 µM | 0.112 µM | 0.34 µM | 0.112 µM | 0.276 µM | 0.193 µM |  |  |
| Cn1c(-c2cccc(NC(=O)C(=O)Nc3ccc(-c4ccsc4)cc3)c2)c(I)c2cc(C(=O)O)c(O)cc21 [Example 11a-1, reference compound] |  |  |  |  |  |  |  |  |  |  |  |  |  | ~200 nM | ≥ 1000 nM |
| O=C(Nc1ccc(-c2cc3cc(F)c(-c4nnn[nH]4)cc3n2C2CCC2)cc1)C(=O)Nc1ccc(N2CCC3(CCC(O)C3)CC2)cc1 (centres unmarked) [Example 100] | 0.14 µM | 0.047 µM | 0.134 µM |  |  |  | 0.05 µM | 0.063 µM |  |  | 0.106 µM | 0.075 µM |  |  |  |
| CC1(n2c(-c3ccc(NC(=O)C(=O)Nc4ccc(N5CCC6(CCOC6)CC5)cc4)cc3)cc3cc(F)c(-c4nnn[nH]4)cc32)CCC1 [Example 68] |  |  |  |  |  |  |  | 0.072 µM |  |  |  |  |  |  |  |
